From patent US20230150981A1, “N-HETEROARYLALKYL-2-(HETEROCYCLYL AND HETEROCYCLYLMETHYL) ACETAMIDE DERIVATIVES AS SSTR4 AGONISTS” (Takeda Pharmaceutical Compnay Limited, priority 2020, published 2023)

Target: T1, SSTR4 (Homo sapiens, UniProt P31391)
T1 construct: host or cells: CHO-K1
Assay: Inhibition of forskolin stimulated cAMP in CHO-K1 cells overexpressing SSTR4
Assay type: cell-based
Details: read-out: SSTR4 Activity pEC50 (converted)
Description: Inhibition of Forskolin Stimulated cAMP in Cells Overexpressing SSTR4
This cell-based assay measures the ability of compounds to inhibit forskolin stimulated cAMP in CHO-K1 cells overexpressing SSTR4. CHO-K1 cells overexpressing SSTR4 (CHO-SSTR4) are purchased from DiscoveRx (product code 95-0059C2). The CHO-SSTR4 cells are maintained in F12K media with 10% Fetal Bovine Serum (Hyclone), 1% Pen/Strep (Life Technologies), and 800 μg/mL G418 (Life Technologies). To perform the assay, 3000 cells are plated per well in white 384-well plate (Corning 3570) in 50 μL complete media and the cells are allowed to attach for 16 hours in a 37° C., 5% CO2 incubator. The next day, the culture media is removed from the cells and the cells are washed (added then removed) with Krebs Ringer Buffer (ZenBio, KRB-1000 mL). Test compounds are suspended in DMSO and diluted in stimulation buffer: Krebs Ringer Buffer plus 0.5% BSA (Roche), 300 μM IBMX (Sigma), and 350 nM forskolin (Sigma). The cells are incubated in 10 μL compound/stimulation buffer for 30 minutes at room temperature. Cellular cAMP levels are detected with a HTRF LANCE Ultra cAMP kit (Perkin Elmer, catalog number TRF0264).
The assay is performed in accordance with the manufacturer's instructions. Five μL of diluted Eu-W8044 labeled streptavidin (dilution: 1:50 in cAMP Detection Buffer) is added to each well. Then 5 μL of diluted biotin cAMP (dilution: 1:150 in cAMP Detection Buffer) is added to each well. The plates are covered and allowed to incubate for 60 minutes at room temperature on a shaker. HTRF (665 nm/615 nm) is read on a Perkin Elmer ENVISION plate reader. The pEC50 values are generated using Activity Base for Screening Data Management.

T1 sequence (P31391 whole entry): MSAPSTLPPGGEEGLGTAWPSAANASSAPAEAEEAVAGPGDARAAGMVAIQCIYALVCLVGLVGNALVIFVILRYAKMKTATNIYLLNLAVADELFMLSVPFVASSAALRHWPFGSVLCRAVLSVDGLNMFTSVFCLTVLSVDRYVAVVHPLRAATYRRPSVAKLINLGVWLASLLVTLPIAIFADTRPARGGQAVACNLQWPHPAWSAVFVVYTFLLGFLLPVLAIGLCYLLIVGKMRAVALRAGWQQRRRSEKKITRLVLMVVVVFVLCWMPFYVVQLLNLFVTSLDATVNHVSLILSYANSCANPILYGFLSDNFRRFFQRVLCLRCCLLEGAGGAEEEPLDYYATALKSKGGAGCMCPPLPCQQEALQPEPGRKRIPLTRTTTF

Row | EC50 [nM] | SMILES
1 | 63.1 | COc1c(C)cccc1C(C)(C)NC(=O)[C@@H](C)CN1CCC1 (single isomer, unassigned) [Example 147]
2 | 158 | COc1c(C)cccc1C(C)(C)NC(=O)C[C@H]1CCCN1C [Example 117, (R)-N-(2-(2-methoxy-3-methylphenyl)propan-2-yl)-2-(1-methylpyrrolidin-2-yl)acetamide]
3 | 251 | Cc1cccnc1OCC1(NC(=O)CC2CCCCN2C)CC1 (stereo not drawn) [Example 120, 2-(1-methylpiperidin-2-yl)-N-(1-(((3-methylpyridin-2-yl)oxy)methyl)cyclopropyl)acetamide]
4 | 631 | Cc1cccnc1OCC1(NC(=O)C[C@H]2CCCN2C)CC1 [Example 121, (R)-N-(1-(((3-methylpyridin-2-yl)oxy)methyl)cyclopropyl)-2-(1-methylpyrrolidin-2-yl)acetamide]
5 | 316 | CN1CCC[C@H]1CC(=O)NC(C)(C)COc1nccc2ccoc12 [Example 122, (S)-N-(1-(furo[2,3-c]pyridin-7-yloxy)-2-methylpropan-2-yl)-2-(1-methylpyrrolidin-2-yl)acetamide]
6 | 158 | CN1CCC[C@H]1CC(=O)NC(C)(C)COc1ccccn1 [Example 123, (S)-N-(2-methyl-1-(pyridin-2-yloxy)propan-2-yl)-2-(1-methylpyrrolidin-2-yl)acetamide]
7 | 39.8 | Cc1cnc(OCC(C)(C)NC(=O)C[C@@H]2CCCN2C)c(Cl)c1 [Example 124, (S)-N-(1-((3-chloro-5-methylpyridin-2-yl)oxy)-2-methylpropan-2-yl)-2-(1-methylpyrrolidin-2-yl)acetamide]
8 | 126 | CN1CCC[C@H]1CC(=O)NC(C)(C)COc1nccc2occc12 [Example 125, (S)-N-(1-(furo[3,2-c]pyridin-4-yloxy)-2-methylpropan-2-yl)-2-(1-methylpyrrolidin-2-yl)acetamide]
9 | 398 | Cc1ccc(C(NC(=O)C[C@@H]2CCCN2C)C(F)(F)F)cc1 (stereo partly drawn) [Example 158, 2-((S)-1-methylpyrrolidin-2-yl)-N-(2,2,2-trifluoro-1-(p-tolyl)ethyl)acetamide]
10 | 398 | CN1CCC[C@@H]1CC(=O)NC(C)(C)c1ccccc1F [Example 159, (R)-N-(2-(2-fluorophenyl)propan-2-yl)-2-(1-methylpyrrolidin-2-yl)acetamide]

More lines, now with the values behind:

Row | SMILES | EC50 [nM]
11 | CN1CCCC[C@H]1CC(=O)NC(C)(C)c1nccc2occc12 (single isomer, unassigned) [Example 15] | 25.1
12 | CN1CCCCC1CC(=O)NC(C)(C)c1nccc2occc12 (stereo not drawn) [Example 13, N-(2-(furo[3,2-c]pyridin-4-yl)propan-2-yl)-2-(1-methylpiperidin-2-yl)acetamide] | 20
13 | CCN1CCCC1CC(=O)NC1(COc2ncccc2C)CC1 (stereo not drawn) [Example 63, 2-(1-ethylpyrrolidin-2-yl)-N-(1-(((3-methylpyridin-2-yl)oxy)methyl)cyclopropyl)acetamide] | 63.1
14 | CN1CCC[C@H]1CC(=O)NC(C)(C)c1cccc(F)c1Cl [Example 93, (S)-N-(2-(2-chloro-3-fluorophenyl)propan-2-yl)-2-(1-methylpyrrolidin-2-yl)acetamide] | 63.1
15 | COc1cc(F)ccc1[C@H](C)NC(=O)C[C@@H]1CCCN1C [Example 95, N-((S)-1-(4-fluoro-2-methoxyphenyl)ethyl)-2-((S)-1-methylpyrrolidin-2-yl)acetamide] | 794
16 | CN1CCC(F)(F)C1CC(=O)NC(C)(C)c1nccc2ccccc12 (stereo not drawn) [Example 97, 2-(3,3-difluoro-1-methylpyrrolidin-2-yl)-N-(2-(isoquinolin-1-yl)propan-2-yl)acetamide] | 1000
17 | Cc1cccc2c(C(C)(C)NC(=O)CC3N(C)CCC3(F)F)nccc12 (stereo not drawn) [Example 98, 2-(3,3-difluoro-1-methylpyrrolidin-2-yl)-N-(2-(5-methylisoquinolin-1-yl)propan-2-yl)acetamide] | 158
18 | CN1CCC(F)(F)C1CC(=O)NC(C)(C)c1nccc2occc12 (stereo not drawn) [Example 99, 2-(3,3-difluoro-1-methylpyrrolidin-2-yl)-N-(2-(furo[3,2-c]pyridin-4-yl)propan-2-yl)acetamide] | 3980
19 | Cc1ccnc(OCC(C)(C)NC(=O)C[C@@H]2CCCN2C)c1 [Example 102, (S)-N-(2-methyl-1-((4-methylpyridin-2-yl)oxy)propan-2-yl)-2-(1-methylpyrrolidin-2-yl)acetamide] | 631
20 | Cc1ccc(OCC(C)(C)NC(=O)C[C@@H]2CCCN2C)nc1 [Example 103, (S)-N-(2-methyl-1-((5-methylpyridin-2-yl)oxy)propan-2-yl)-2-(1-methylpyrrolidin-2-yl)acetamide] | 501
21 | CN1CCC[C@H]1CC(=O)NC(C)(C)COc1cc(Cl)c(F)cn1 [Example 105, (S)-N-(1-((4-chloro-5-fluoropyridin-2-yl)oxy)-2-methylpropan-2-yl)-2-(1-methylpyrrolidin-2-yl)acetamide] | 794
22 | CN1CCC[C@@H]1CC(=O)NC(C)(C)COc1ncccc1OC(F)(F)F [Example 106, (R)-N-(2-methyl-1-((3-(trifluoromethoxy)pyridin-2-yl)oxy)propan-2-yl)-2-(1-methylpyrrolidin-2-yl)acetamide] | 20
23 | CCOc1cccnc1OCC(C)(C)NC(=O)C[C@H]1CCCN1C [Example 107, (R)-N-(1-((3-ethoxypyridin-2-yl)oxy)-2-methylpropan-2-yl)-2-(1-methylpyrrolidin-2-yl)acetamide] | 200
24 | CN1CCC[C@@H]1CC(=O)NC(C)(C)COc1ncccc1C1CC1 [Example 108, (R)-N-(1-((3-cyclopropylpyridin-2-yl)oxy)-2-methylpropan-2-yl)-2-(1-methylpyrrolidin-2-yl)acetamide] | 20
25 | CCOc1cccnc1OCC(C)(C)NC(=O)C[C@@H]1CCCN1C [Example 109, (S)-N-(1-((3-ethoxypyridin-2-yl)oxy)-2-methylpropan-2-yl)-2-(1-methylpyrrolidin-2-yl)acetamide] | 631
26 | COc1c(Cl)cccc1C(C)(C)NC(=O)C[C@H]1CCCN1C [Example 113, (R)-N-(2-(3-chloro-2-methoxyphenyl)propan-2-yl)-2-(1-methylpyrrolidin-2-yl)acetamide] | 79.4
27 | COc1c(F)cccc1C(C)(C)NC(=O)C[C@@H]1CCCN1C [Example 114, (S)-N-(2-(3-fluoro-2-methoxyphenyl)propan-2-yl)-2-(1-methylpyrrolidin-2-yl)acetamide] | 251
28 | COc1c(F)cccc1C(C)(C)NC(=O)C[C@H]1CCCN1C [Example 115, (R)-N-(2-(3-fluoro-2-methoxyphenyl)propan-2-yl)-2-(1-methylpyrrolidin-2-yl)acetamide] | 200
29 | COc1c(C)cccc1C(C)(C)NC(=O)C[C@@H]1CCCN1C [Example 116, (S)-N-(2-(2-methoxy-3-methylphenyl)propan-2-yl)-2-(1-methylpyrrolidin-2-yl)acetamide] | 79.4

Target: T1, SSTR4
Assay: SSTR4 I-125 somatostatin competition binding assay (CHO-K1 membranes)
Details: competition with I-125 somatostatin, membranes from CHO-K1 overexpressing SSTR4; read-out: SSTR4 Binding pIC50 (converted)
Description: SSTR4 I-125 Somatostatin Competition Binding Assay
Membranes from CHO-K1 cells overexpressing SSTR4 are purchased from Perkin Elmer (catalog number ES-524-M400UA). Test compounds are suspended in DMSO and then diluted in assay buffer (25 mM HEPES pH 7.4, 10 mM MgCl2, 1 mM CaCl2), 0.5% BSA) plus 0.2 nM I-125 labeled somatostatin (Perkin Elmer catalog number NEX389). Fifty μL of compound/I-125 somatostatin in assay buffer are added per well to 96-well poly-propylene plate. Then 1 μg of SSTR4 membranes in 50 μL assay buffer are added per well. The Plate is incubated for 60 minutes at room temperature. FilterMat A filters (Perkin Elmer catalog number 1450-421) are pre-soaked in 0.5% PEI (Sigma catalog number P3143). The contents of the assay plate are transferred to filters with a TomTech harvester and washed 5 times with 20 mM HEPES, 100 mM NaCl. The filters are dried in a microwave oven then transferred to sample bag containing a scintillator sheet (Perkin Elmer catalog number 1450-441). The scintillator sheets are melted to filters using a heat block. The filters are then read in a MicroBeta scintillation counter. Binding Ki curves are generated using Activity Base for Screening Data Management and the results are reported as pIC50.

Row | IC50 [nM] | SMILES
30 | 316 | CN1CCCC[C@H]1CC(=O)NC(C)(C)c1nccc2occc12 (single isomer, unassigned) [Example 15]
31 | 1580 | COc1c(C)cccc1C(C)(C)NC(=O)[C@@H](C)CN1CCC1 (single isomer, unassigned) [Example 147]
32 | 126 | CN1CCCCC1CC(=O)NC(C)(C)c1nccc2occc12 (stereo not drawn) [Example 13, N-(2-(furo[3,2-c]pyridin-4-yl)propan-2-yl)-2-(1-methylpiperidin-2-yl)acetamide]
33 | 1580 | CCN1CCCC1CC(=O)NC1(COc2ncccc2C)CC1 (stereo not drawn) [Example 63, 2-(1-ethylpyrrolidin-2-yl)-N-(1-(((3-methylpyridin-2-yl)oxy)methyl)cyclopropyl)acetamide]
